From ChEMBL document CHEMBL5154904, “Discovery and Structural Basis of the Selectivity of Potent Cyclic Peptide Inhibitors of MAGE-A4” (J Med Chem, 2022)
Where a chain is given by its changes, count along the chain named. Active and inactive are the calls of the source. The calls are words filed in the database; no cut-off is given here. Positions of bridges follow the written chain, without caps; N, C: chain ends. Residues, ends and D or L forms follow the SMILES beside them.

How the values were obtained:
[1] = molecular target: T1, Melanoma-associated antigen 4 (Homo sapiens, UniProt P43358); assay: Binding affinity to MAGEA4 (unknown origin) expressed in Escherichia coli BL21-(DE3) by isothermal titration calorimetry
T1 sequence (P43358 whole entry): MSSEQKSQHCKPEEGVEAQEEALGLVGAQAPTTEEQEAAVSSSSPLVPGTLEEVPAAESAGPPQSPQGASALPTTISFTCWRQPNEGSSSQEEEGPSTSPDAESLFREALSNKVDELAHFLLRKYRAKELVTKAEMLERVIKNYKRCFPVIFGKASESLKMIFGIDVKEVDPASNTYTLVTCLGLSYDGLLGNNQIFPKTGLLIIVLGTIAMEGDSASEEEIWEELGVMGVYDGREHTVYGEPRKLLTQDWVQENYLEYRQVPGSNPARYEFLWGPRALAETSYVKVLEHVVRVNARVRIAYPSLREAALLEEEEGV

[2] = molecular target: T1, Melanoma-associated antigen 4; assay: Binding affinity to recombinant N-terminal His-tagged MAGEA4-MH domain (unknown origin) expressed in Escherichia coli BL21-(DE3) by isothermal titration calorimetry
[3] = tested on: NCI-H1299; assay: Inhibition of MAGEA4 in human NCI-H1299 cell lysate interaction with HA-tagged RAD18 (unknown origin) at 20 nM incubated for overnight by co-immunoprecipitation pull down assay; type: subcellular
[4] = molecular target: T2, Melanoma-associated antigen 4 (Homo sapiens) (UniProt P43358); assay: Binding affinity to recombinant N-terminal His-tagged MAGEA4-MH domain (unknown origin) expressed in Escherichia coli BL21-(DE3) assessed as protection in trypsin-induced MAGEA4 protein degradation incubated for 1 hr by proteolysis based SDS-PAGE analysis
T2 sequence (whole entry): T1 sequence (P43358 whole entry)

[5] = tested on: T3, Melanoma-associated antigen 4 (Homo sapiens), P43358 [E225A]; assay: Binding affinity to recombinant N-terminal His-tagged MAGEA4-MH domain E225A mutant (unknown origin) expressed in Escherichia coli BL21-(DE3) assessed as increase in thermal stability by SYPRO orange dye based differential scanning fluorimetry; details: dose <= 10.0 µM
T3 sequence (whole entry): T1 sequence (P43358 whole entry) with E225A

[6] = tested on: T4, Melanoma-associated antigen 4 (Homo sapiens), P43358 [V228A]; assay: Binding affinity to recombinant N-terminal His-tagged MAGEA4-MH domain V228A mutant (unknown origin) expressed in Escherichia coli BL21-(DE3) assessed as increase in thermal stability by SYPRO orange dye based differential scanning fluorimetry; details: dose <= 10.0 µM
T4 sequence (whole entry): T1 sequence (P43358 whole entry) with V228A

[7] = tested on: T5, Melanoma-associated antigen 4 (Homo sapiens), P43358 [V294A]; assay: Binding affinity to recombinant N-terminal His-tagged MAGEA4-MH domain V294A mutant (unknown origin) expressed in Escherichia coli BL21-(DE3) assessed as increase in thermal stability by SYPRO orange dye based differential scanning fluorimetry; details: dose <= 10.0 µM
T5 sequence (whole entry): T1 sequence (P43358 whole entry) with V294A

[8] = tested on: T6, Melanoma-associated antigen 4 (Homo sapiens), P43358 [R297A]; assay: Binding affinity to recombinant N-terminal His-tagged MAGEA4-MH domain R297A mutant (unknown origin) expressed in Escherichia coli BL21-(DE3) assessed as increase in thermal stability by SYPRO orange dye based differential scanning fluorimetry; details: dose <= 10.0 µM
T6 sequence (whole entry): T1 sequence (P43358 whole entry) with R297A

[9] = species: Homo sapiens; assay: Inhibition of Eu-W1024 streptavidin-labeled 6 xHis-tagged MAGEA4-MH domain M161A mutant (unknown origin) expressed in Escherichia coli BL21-(DE3) interaction with Ulight-labeled GST-tagged RAD18 (unknown origin) (267 to 402 residues) at 1 uM by LANCE TR-FRET assay
[10] = Inhibition of Eu-W1024 streptavidin-labeled 6 xHis-tagged MAGEA4-MH domain (unknown origin) expressed in Escherichia coli BL21-(DE3)/GST-tagged RAD18 (unknown origin) (267 to 402 residues) interaction using Ulight-anti-GST antibody incubated for 30 to 60 mins by LANCE TR-FRET assay; set-up: species or system Homo sapiens

SMILES: CC[C@H](C)[C@@H]1NC(=O)[C@H](Cc2ccc(O)cc2)NC(=O)CSC[C@@H](C(N)=O)NC(=O)[C@H](CC(N)=O)NC(=O)[C@H](Cc2cnc[nH]2)NC(=O)[C@H](Cc2ccc(O)cc2)NC(=O)[C@H](CC(=O)O)NC(=O)[C@H](Cc2ccc(O)cc2)NC(=O)[C@H](CC(C)C)NC(=O)[C@H](CCCNC(=N)N)NC1=O ({CH2CO}-YIRLYDYHNC-NH2; thioether N-10)
- Kd [1]: 36.8 nM
- Kd [2]: 9.7 nM
- inhibition [3]: Active
- Activity [4]: Active
- Tm [5]: < 3.5 °C
- Tm [6]: < 3.5 °C
- Tm [7]: < 3.5 °C
- Tm [8]: < 3.5 °C
- inhibition [9]: Active
- IC50 [10]: 3.65 nM
